# Source: BigSolDB 2.1
smiles,measurement,setting,value
c1ccc(-c2cc3ccccc3[nH]2)cc1,solubility (mole fraction),"in 1,2-dichloroethane, 296.95 K",0.0186
same,solubility (mole fraction),"in 1,2-dichloroethane, 302.45 K",0.0236
same,solubility (mole fraction),"in 1,2-dichloroethane, 308.55 K",0.0285
same,solubility (mole fraction),"in 1,2-dichloroethane, 313.15 K",0.0325
same,solubility (mole fraction),"in 1,2-dichloroethane, 318.25 K",0.0373
same,solubility (mole fraction),"in 1,2-dichloroethane, 323.25 K",0.0422
same,solubility (mole fraction),"in 1,2-dichloroethane, 329.05 K",0.0498
same,solubility (mole fraction),"in 1,2-dichloroethane, 334.05 K",0.0575
same,solubility (mole fraction),"in 1,2-dichloroethane, 338.55 K",0.0666
same,solubility (mole fraction),"in 1,4-dioxane, 289.05 K",0.0403
same,solubility (mole fraction),"in 1,4-dioxane, 293.15 K",0.0507
same,solubility (mole fraction),"in 1,4-dioxane, 299.15 K",0.0625
same,solubility (mole fraction),"in 1,4-dioxane, 303.95 K",0.0735
same,solubility (mole fraction),"in 1,4-dioxane, 308.95 K",0.0903
same,solubility (mole fraction),"in 1,4-dioxane, 313.65 K",0.114
same,solubility (mole fraction),"in 1,4-dioxane, 318.65 K",0.145
same,solubility (mole fraction),"in 1,4-dioxane, 324.05 K",0.172
same,solubility (mole fraction),"in 1,4-dioxane, 329.35 K",0.201
same,solubility (mole fraction),"in 1,4-dioxane, 334.15 K",0.239
same,solubility (mole fraction),"in MTBE, 289.05 K",0.0337
same,solubility (mole fraction),"in MTBE, 293.15 K",0.0351
same,solubility (mole fraction),"in MTBE, 299.15 K",0.0383
same,solubility (mole fraction),"in MTBE, 303.95 K",0.0406
same,solubility (mole fraction),"in MTBE, 308.95 K",0.0428
same,solubility (mole fraction),"in MTBE, 313.65 K",0.0452
same,solubility (mole fraction),"in MTBE, 318.65 K",0.049
same,solubility (mole fraction),"in MTBE, 324.05 K",0.0522
same,solubility (mole fraction),"in MTBE, 329.35 K",0.0558
same,solubility (mole fraction),"in MTBE, 334.15 K",0.0596
same,solubility (mole fraction),"in THF, 289.05 K",0.187
same,solubility (mole fraction),"in THF, 293.15 K",0.194
same,solubility (mole fraction),"in THF, 299.15 K",0.203
same,solubility (mole fraction),"in THF, 303.95 K",0.211
same,solubility (mole fraction),"in THF, 308.95 K",0.218
same,solubility (mole fraction),"in THF, 313.65 K",0.225
same,solubility (mole fraction),"in THF, 318.65 K",0.232
same,solubility (mole fraction),"in THF, 324.05 K",0.24
same,solubility (mole fraction),"in THF, 329.35 K",0.248
same,solubility (mole fraction),"in THF, 334.15 K",0.256
same,solubility (mole fraction),"in acetone, 289.05 K",0.0951
same,solubility (mole fraction),"in acetone, 293.15 K",0.106
same,solubility (mole fraction),"in acetone, 299.15 K",0.111
same,solubility (mole fraction),"in acetone, 303.95 K",0.122
same,solubility (mole fraction),"in acetone, 308.95 K",0.132
same,solubility (mole fraction),"in acetone, 313.65 K",0.142
same,solubility (mole fraction),"in acetone, 318.65 K",0.15
same,solubility (mole fraction),"in acetone, 324.05 K",0.16
same,solubility (mole fraction),"in acetone, 329.35 K",0.172
same,solubility (mole fraction),"in acetonitrile, 289.05 K",0.0144
same,solubility (mole fraction),"in acetonitrile, 293.15 K",0.0164
same,solubility (mole fraction),"in acetonitrile, 299.15 K",0.02
same,solubility (mole fraction),"in acetonitrile, 303.95 K",0.0237
same,solubility (mole fraction),"in acetonitrile, 308.95 K",0.0283
same,solubility (mole fraction),"in acetonitrile, 313.65 K",0.0328
same,solubility (mole fraction),"in acetonitrile, 318.65 K",0.038
same,solubility (mole fraction),"in acetonitrile, 324.05 K",0.0446
same,solubility (mole fraction),"in acetonitrile, 329.35 K",0.0533
same,solubility (mole fraction),"in acetonitrile, 334.15 K",0.0604
same,solubility (mole fraction),"in ethanol, 296.95 K",0.0109
same,solubility (mole fraction),"in ethanol, 302.45 K",0.012
same,solubility (mole fraction),"in ethanol, 308.55 K",0.014
same,solubility (mole fraction),"in ethanol, 313.15 K",0.0154
same,solubility (mole fraction),"in ethanol, 318.25 K",0.0173
same,solubility (mole fraction),"in ethanol, 323.25 K",0.0187
same,solubility (mole fraction),"in ethanol, 329.05 K",0.0217
same,solubility (mole fraction),"in ethanol, 334.05 K",0.0249
same,solubility (mole fraction),"in ethanol, 338.55 K",0.0274
same,solubility (mole fraction),"in ethyl acetate, 289.05 K",0.0634
same,solubility (mole fraction),"in ethyl acetate, 293.15 K",0.0694
same,solubility (mole fraction),"in ethyl acetate, 299.15 K",0.0761
same,solubility (mole fraction),"in ethyl acetate, 303.95 K",0.0814
same,solubility (mole fraction),"in ethyl acetate, 308.95 K",0.0879
same,solubility (mole fraction),"in ethyl acetate, 313.65 K",0.0951
same,solubility (mole fraction),"in ethyl acetate, 318.65 K",0.101
same,solubility (mole fraction),"in ethyl acetate, 324.05 K",0.11
same,solubility (mole fraction),"in ethyl acetate, 329.35 K",0.119
same,solubility (mole fraction),"in ethyl acetate, 334.15 K",0.128
same,solubility (mole fraction),"in isopropanol, 296.95 K",0.00786
same,solubility (mole fraction),"in isopropanol, 302.45 K",0.00963
same,solubility (mole fraction),"in isopropanol, 308.55 K",0.0115
same,solubility (mole fraction),"in isopropanol, 313.15 K",0.0125
same,solubility (mole fraction),"in isopropanol, 318.25 K",0.0148
same,solubility (mole fraction),"in isopropanol, 323.25 K",0.0168
same,solubility (mole fraction),"in isopropanol, 329.05 K",0.0185
same,solubility (mole fraction),"in isopropanol, 334.05 K",0.0218
same,solubility (mole fraction),"in isopropanol, 338.55 K",0.0233
same,solubility (mole fraction),"in methanol, 296.95 K",0.00571
same,solubility (mole fraction),"in methanol, 302.45 K",0.00709
same,solubility (mole fraction),"in methanol, 308.55 K",0.00835
same,solubility (mole fraction),"in methanol, 313.15 K",0.00941
same,solubility (mole fraction),"in methanol, 318.25 K",0.0107
same,solubility (mole fraction),"in methanol, 323.25 K",0.0119
same,solubility (mole fraction),"in methanol, 329.05 K",0.0136
same,solubility (mole fraction),"in methanol, 334.05 K",0.016
same,solubility (mole fraction),"in methanol, 338.55 K",0.017
same,solubility (mole fraction),"in n-butanol, 296.95 K",0.0123
same,solubility (mole fraction),"in n-butanol, 302.45 K",0.0141
same,solubility (mole fraction),"in n-butanol, 308.55 K",0.0163
same,solubility (mole fraction),"in n-butanol, 313.15 K",0.0181
same,solubility (mole fraction),"in n-butanol, 318.25 K",0.0212
same,solubility (mole fraction),"in n-butanol, 323.25 K",0.0241
same,solubility (mole fraction),"in n-butanol, 329.05 K",0.0276
same,solubility (mole fraction),"in n-butanol, 334.05 K",0.0311
same,solubility (mole fraction),"in n-butanol, 338.55 K",0.0357
same,solubility (mole fraction),"in n-propanol, 296.95 K",0.0104
same,solubility (mole fraction),"in n-propanol, 302.45 K",0.012
same,solubility (mole fraction),"in n-propanol, 308.55 K",0.0134
same,solubility (mole fraction),"in n-propanol, 313.15 K",0.0156
same,solubility (mole fraction),"in n-propanol, 318.25 K",0.0177
same,solubility (mole fraction),"in n-propanol, 323.25 K",0.0206
same,solubility (mole fraction),"in n-propanol, 329.05 K",0.0233
same,solubility (mole fraction),"in n-propanol, 334.05 K",0.0269
same,solubility (mole fraction),"in n-propanol, 338.55 K",0.03
same,solubility (mole fraction),"in sec-butanol, 296.95 K",0.00879
same,solubility (mole fraction),"in sec-butanol, 302.45 K",0.0111
same,solubility (mole fraction),"in sec-butanol, 308.55 K",0.014
same,solubility (mole fraction),"in sec-butanol, 313.15 K",0.0157
same,solubility (mole fraction),"in sec-butanol, 318.25 K",0.0182
same,solubility (mole fraction),"in sec-butanol, 323.25 K",0.022
same,solubility (mole fraction),"in sec-butanol, 329.05 K",0.0271
same,solubility (mole fraction),"in sec-butanol, 334.05 K",0.0307
same,solubility (mole fraction),"in sec-butanol, 338.55 K",0.0353
same,solubility (mole fraction),"in toluene, 289.05 K",0.00911
same,solubility (mole fraction),"in toluene, 293.15 K",0.0101
same,solubility (mole fraction),"in toluene, 299.15 K",0.0122
same,solubility (mole fraction),"in toluene, 303.95 K",0.0141
same,solubility (mole fraction),"in toluene, 308.95 K",0.0167
same,solubility (mole fraction),"in toluene, 313.65 K",0.0191
same,solubility (mole fraction),"in toluene, 318.65 K",0.0222
same,solubility (mole fraction),"in toluene, 324.05 K",0.0255
same,solubility (mole fraction),"in toluene, 329.35 K",0.0298
same,solubility (mole fraction),"in toluene, 334.15 K",0.0342
